One block for each compound: values may come before it.
Legend:
Assay in all cases: radiometric filter-binding kinase assay
BRSK2 (human) = BRSK2 (human) (UniProt Q8IWQ3)
MAPK11 (human) = MAPK11 (human) (UniProt Q15759)
EPHB3 (human) = EPHB3 (human) (UniProt P54753)
INSR (human) = INSR (human) (UniProt P06213)
MAPK1 (human) = MAPK1 (human) (UniProt P28482)
PAK7 (human) = PAK7 (human) (UniProt Q9P286)
SRC (human) = SRC (human) (UniProt P12931)
LCK (mouse) = conditions: accession and sequence are those of the human protein
SYK (human) = SYK (human) (UniProt P43405)
MAPK13 (human) = MAPK13 (human) (UniProt O15264)
RPS6KA5 KD1 KD2 (human) = RPS6KA5 KD1 KD2 (human) (UniProt O75582)
YES1 (human) = YES1 (human) (UniProt P07947)
CAMKK2 (human) = CAMKK2 (human) (UniProt Q96RR4)
CSK (human) = CSK (human) (UniProt P41240)
HIPK2 (human) = HIPK2 (human) (UniProt Q9H2X6)
PLK1 (human) = PLK1 (human) (UniProt P53350)
PLK1 (human), sequence (P53350 whole entry, looked up): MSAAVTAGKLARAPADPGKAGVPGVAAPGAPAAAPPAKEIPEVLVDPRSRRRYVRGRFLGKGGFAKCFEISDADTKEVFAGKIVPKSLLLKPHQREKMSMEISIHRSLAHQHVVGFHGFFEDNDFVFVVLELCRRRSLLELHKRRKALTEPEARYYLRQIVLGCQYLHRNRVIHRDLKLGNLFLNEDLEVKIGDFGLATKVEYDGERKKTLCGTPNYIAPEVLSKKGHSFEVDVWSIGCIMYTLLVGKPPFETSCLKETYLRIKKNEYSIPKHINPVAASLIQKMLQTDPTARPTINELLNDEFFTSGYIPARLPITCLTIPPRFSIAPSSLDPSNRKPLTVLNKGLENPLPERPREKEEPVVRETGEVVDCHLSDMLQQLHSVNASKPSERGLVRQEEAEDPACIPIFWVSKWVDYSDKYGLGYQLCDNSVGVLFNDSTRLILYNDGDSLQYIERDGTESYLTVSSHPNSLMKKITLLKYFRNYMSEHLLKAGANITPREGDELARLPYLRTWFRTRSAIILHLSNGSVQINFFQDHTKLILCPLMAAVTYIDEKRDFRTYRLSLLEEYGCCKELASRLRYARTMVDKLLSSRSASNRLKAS

PKN2 (human) = PKN2 (human) (UniProt Q16513)
PKN2 (human), sequence (Q16513 whole entry, looked up): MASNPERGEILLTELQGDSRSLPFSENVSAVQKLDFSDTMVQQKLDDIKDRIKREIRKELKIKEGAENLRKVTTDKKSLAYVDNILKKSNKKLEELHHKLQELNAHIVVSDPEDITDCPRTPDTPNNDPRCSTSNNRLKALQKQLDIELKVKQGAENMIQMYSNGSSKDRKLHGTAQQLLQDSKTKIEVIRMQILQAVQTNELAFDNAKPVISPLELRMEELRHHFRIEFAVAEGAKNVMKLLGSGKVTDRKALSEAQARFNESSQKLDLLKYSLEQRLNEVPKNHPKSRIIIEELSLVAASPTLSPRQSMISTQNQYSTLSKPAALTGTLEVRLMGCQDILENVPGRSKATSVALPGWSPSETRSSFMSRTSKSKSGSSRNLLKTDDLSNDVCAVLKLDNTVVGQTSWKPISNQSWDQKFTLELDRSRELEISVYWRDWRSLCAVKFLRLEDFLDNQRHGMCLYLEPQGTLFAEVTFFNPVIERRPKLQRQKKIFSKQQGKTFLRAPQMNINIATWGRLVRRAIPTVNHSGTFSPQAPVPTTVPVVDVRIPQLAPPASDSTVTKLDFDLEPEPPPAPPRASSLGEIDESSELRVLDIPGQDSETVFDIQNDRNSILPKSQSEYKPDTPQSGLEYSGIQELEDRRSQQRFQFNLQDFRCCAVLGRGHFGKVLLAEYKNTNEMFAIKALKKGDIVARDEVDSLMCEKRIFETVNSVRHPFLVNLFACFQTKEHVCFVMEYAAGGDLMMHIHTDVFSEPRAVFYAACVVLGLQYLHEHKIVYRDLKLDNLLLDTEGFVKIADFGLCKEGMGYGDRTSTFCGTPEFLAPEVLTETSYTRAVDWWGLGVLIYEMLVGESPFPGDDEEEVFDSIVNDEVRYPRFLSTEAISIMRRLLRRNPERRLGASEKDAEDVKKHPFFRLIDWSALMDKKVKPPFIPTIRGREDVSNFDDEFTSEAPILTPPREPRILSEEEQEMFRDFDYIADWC

GSK3B (human) = GSK3B (human) (UniProt P49841)
PRKCZ (human) = PRKCZ (human) (UniProt Q05513)
ROCK2 (rat) = conditions: accession and sequence are those of the human protein
PAK6 (human) = PAK6 (human) (UniProt Q9NQU5)
PAK6 (human), sequence (Q9NQU5 whole entry, looked up): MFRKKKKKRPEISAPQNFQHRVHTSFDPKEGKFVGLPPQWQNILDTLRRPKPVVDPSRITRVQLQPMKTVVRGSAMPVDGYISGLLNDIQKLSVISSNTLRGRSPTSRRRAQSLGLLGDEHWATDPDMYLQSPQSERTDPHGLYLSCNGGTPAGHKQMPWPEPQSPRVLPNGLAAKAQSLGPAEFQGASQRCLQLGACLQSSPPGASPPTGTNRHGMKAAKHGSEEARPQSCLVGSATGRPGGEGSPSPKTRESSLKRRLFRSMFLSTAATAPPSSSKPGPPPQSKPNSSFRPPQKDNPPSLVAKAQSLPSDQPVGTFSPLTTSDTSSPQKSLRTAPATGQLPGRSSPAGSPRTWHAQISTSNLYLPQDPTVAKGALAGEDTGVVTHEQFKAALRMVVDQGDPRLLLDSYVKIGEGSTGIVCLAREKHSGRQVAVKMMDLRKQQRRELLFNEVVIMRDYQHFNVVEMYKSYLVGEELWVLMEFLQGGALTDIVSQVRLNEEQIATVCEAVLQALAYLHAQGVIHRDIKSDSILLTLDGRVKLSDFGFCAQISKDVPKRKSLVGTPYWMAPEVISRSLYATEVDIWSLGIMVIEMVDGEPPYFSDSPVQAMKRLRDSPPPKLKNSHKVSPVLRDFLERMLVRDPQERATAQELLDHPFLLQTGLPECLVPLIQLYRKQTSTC

IGF1R (human) = IGF1R (human) (UniProt P08069)
PRKAA1 or PRKAA2 (rat) = conditions: accession and sequence are those of the human protein
[1] = system: AKT2 (human), P31751 [S474D]

PAK7 (human), sequence (Q9P286 whole entry, looked up): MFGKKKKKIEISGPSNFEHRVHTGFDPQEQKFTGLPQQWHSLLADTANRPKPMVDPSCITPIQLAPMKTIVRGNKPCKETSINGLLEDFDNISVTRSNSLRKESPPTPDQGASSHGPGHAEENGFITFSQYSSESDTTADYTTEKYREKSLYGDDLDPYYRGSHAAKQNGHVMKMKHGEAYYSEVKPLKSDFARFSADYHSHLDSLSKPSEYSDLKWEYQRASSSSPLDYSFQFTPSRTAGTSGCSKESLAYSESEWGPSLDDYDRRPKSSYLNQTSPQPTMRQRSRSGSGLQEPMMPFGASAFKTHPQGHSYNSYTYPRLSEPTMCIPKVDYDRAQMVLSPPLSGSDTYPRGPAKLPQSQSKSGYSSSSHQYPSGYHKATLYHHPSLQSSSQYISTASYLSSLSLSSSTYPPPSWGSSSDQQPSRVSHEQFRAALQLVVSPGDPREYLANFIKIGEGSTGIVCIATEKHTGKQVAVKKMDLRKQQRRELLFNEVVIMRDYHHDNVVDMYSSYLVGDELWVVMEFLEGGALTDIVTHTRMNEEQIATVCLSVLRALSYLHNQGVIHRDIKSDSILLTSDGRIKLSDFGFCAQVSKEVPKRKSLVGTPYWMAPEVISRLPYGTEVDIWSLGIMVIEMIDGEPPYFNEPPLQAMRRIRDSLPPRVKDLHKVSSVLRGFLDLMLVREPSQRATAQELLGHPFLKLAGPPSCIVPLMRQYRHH
INSR (human), sequence (P06213 whole entry, looked up): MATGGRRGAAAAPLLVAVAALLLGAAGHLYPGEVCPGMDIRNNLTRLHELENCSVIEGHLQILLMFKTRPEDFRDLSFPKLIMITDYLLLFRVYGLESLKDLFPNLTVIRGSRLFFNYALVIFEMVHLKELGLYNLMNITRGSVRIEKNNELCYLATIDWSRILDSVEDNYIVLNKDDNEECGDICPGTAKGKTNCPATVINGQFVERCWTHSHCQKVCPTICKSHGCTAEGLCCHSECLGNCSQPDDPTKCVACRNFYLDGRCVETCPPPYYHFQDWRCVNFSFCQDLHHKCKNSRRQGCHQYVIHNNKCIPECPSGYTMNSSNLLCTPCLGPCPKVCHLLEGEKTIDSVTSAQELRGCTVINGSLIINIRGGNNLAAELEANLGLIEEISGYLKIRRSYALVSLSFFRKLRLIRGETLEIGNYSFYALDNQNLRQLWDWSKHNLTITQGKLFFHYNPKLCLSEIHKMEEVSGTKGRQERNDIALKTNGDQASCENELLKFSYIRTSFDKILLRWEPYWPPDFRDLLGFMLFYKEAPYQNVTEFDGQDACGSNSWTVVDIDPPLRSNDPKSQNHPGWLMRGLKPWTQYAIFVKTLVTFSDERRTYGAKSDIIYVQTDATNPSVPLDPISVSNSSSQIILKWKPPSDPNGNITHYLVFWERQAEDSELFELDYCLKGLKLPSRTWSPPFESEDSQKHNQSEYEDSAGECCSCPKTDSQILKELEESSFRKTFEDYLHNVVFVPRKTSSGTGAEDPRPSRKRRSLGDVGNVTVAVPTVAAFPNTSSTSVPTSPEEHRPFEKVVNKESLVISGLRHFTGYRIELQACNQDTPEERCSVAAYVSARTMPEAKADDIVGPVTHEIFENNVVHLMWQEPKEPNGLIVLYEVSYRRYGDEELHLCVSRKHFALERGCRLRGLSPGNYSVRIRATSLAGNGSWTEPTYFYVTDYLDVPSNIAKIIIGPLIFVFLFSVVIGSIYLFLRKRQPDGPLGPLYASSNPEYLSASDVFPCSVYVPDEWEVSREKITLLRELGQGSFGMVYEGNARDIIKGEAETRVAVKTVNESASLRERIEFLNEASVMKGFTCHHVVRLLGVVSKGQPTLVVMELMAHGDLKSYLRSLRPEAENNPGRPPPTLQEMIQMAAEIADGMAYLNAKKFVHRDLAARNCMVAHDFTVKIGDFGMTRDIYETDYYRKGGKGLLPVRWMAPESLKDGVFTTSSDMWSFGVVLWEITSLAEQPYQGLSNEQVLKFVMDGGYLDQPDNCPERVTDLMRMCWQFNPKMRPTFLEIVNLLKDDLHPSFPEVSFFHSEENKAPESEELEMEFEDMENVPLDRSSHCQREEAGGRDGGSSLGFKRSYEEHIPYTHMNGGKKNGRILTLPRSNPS
MAPK11 (human), sequence (Q15759 whole entry, looked up): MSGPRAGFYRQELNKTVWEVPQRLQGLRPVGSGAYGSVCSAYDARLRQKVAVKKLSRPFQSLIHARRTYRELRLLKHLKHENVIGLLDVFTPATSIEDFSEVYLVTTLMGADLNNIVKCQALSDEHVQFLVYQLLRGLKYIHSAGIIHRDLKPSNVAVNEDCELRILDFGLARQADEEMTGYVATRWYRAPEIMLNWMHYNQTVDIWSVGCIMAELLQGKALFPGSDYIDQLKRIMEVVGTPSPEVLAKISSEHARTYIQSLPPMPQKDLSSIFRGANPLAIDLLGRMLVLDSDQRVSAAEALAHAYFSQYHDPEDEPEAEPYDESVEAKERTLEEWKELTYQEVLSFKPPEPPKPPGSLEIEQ

Structure (SMILES): C[C@H]1CCCC(=O)CCC/C=C/c2cc(O)cc(O)c2C(=O)O1
residual activity (BRSK2 (human); compound 1.0 µM): 54%
residual activity (BRSK2 (human); compound 10.0 µM): 17%
residual activity (MAPK11 (human); compound 1.0 µM): 108%
residual activity (MAPK11 (human); compound 10.0 µM): 101%
residual activity (EPHB3 (human); compound 1.0 µM): 85%
residual activity (EPHB3 (human); compound 10.0 µM): 85%
residual activity (INSR (human); compound 1.0 µM): 107%
residual activity (INSR (human); compound 10.0 µM): 102%
residual activity (MAPK1 (human); compound 1.0 µM): 98%
residual activity (MAPK1 (human); compound 10.0 µM): 96%
residual activity (PAK7 (human); compound 1.0 µM): 93%
residual activity (PAK7 (human); compound 10.0 µM): 80%
residual activity (SRC (human); compound 1.0 µM): 89%
residual activity (SRC (human); compound 10.0 µM): 34%
residual activity (LCK (mouse); compound 1.0 µM): 69%
residual activity (LCK (mouse); compound 10.0 µM): 26%
residual activity (SYK (human); compound 1.0 µM): 93%
residual activity (SYK (human); compound 10.0 µM): 84%
residual activity (MAPK13 (human); compound 1.0 µM): 84%
residual activity (MAPK13 (human); compound 10.0 µM): 87%
residual activity (RPS6KA5 KD1 KD2 (human); compound 10.0 µM): 36%
residual activity (YES1 (human); compound 1.0 µM): 79%
residual activity (YES1 (human); compound 10.0 µM): 35%
residual activity (CAMKK2 (human); compound 1.0 µM): 90%
residual activity (CAMKK2 (human); compound 10.0 µM): 52%
residual activity (CSK (human); compound 1.0 µM): 80%
residual activity (CSK (human); compound 10.0 µM): 64%
residual activity (HIPK2 (human); compound 1.0 µM): 100%
residual activity (HIPK2 (human); compound 10.0 µM): 63%
residual activity (PLK1 (human); compound 1.0 µM): 76%
residual activity (PLK1 (human); compound 10.0 µM): 63%
residual activity (PKN2 (human); compound 1.0 µM): 70%
residual activity (PKN2 (human); compound 10.0 µM): 33%
residual activity (GSK3B (human); compound 1.0 µM): 47%
residual activity (GSK3B (human); compound 10.0 µM): 11%
residual activity (PRKCZ (human); compound 1.0 µM): 98%
residual activity (PRKCZ (human); compound 10.0 µM): 86%
residual activity (ROCK2 (rat); compound 1.0 µM): 82%
residual activity (ROCK2 (rat); compound 10.0 µM): 81%
residual activity (PAK6 (human); compound 1.0 µM): 99%
residual activity (PAK6 (human); compound 10.0 µM): 94%
residual activity (IGF1R (human); compound 1.0 µM): 93%
residual activity (IGF1R (human); compound 10.0 µM): 64%
residual activity (PRKAA1 or PRKAA2 (rat); compound 1.0 µM): 94%
residual activity (PRKAA1 or PRKAA2 (rat); compound 10.0 µM): 60%
residual activity ([1]; compound 1.0 µM): 97%
residual activity ([1]; compound 10.0 µM): 89%

residual activity (BRSK2 (human); compound 0.1 µM): 99%
residual activity (BRSK2 (human); compound 1.0 µM): 97%
residual activity (MAPK11 (human); compound 0.1 µM): 107%
residual activity (MAPK11 (human); compound 1.0 µM): 104%
residual activity (EPHB3 (human); compound 0.1 µM): 92%
residual activity (EPHB3 (human); compound 1.0 µM): 97%
residual activity (INSR (human); compound 0.1 µM): 104%
residual activity (MAPK1 (human); compound 0.1 µM): 96%
residual activity (MAPK1 (human); compound 1.0 µM): 101%
residual activity (PAK7 (human); compound 0.1 µM): 102%
residual activity (PAK7 (human); compound 1.0 µM): 114%
residual activity (SRC (human); compound 0.1 µM): 96%
residual activity (SRC (human); compound 1.0 µM): 88%
residual activity (LCK (mouse); compound 0.1 µM): 88%
residual activity (LCK (mouse); compound 1.0 µM): 92%
residual activity (SYK (human); compound 0.1 µM): 92%
residual activity (SYK (human); compound 1.0 µM): 86%
residual activity (MAPK13 (human); compound 0.1 µM): 88%
residual activity (MAPK13 (human); compound 1.0 µM): 88%
residual activity (RPS6KA5 KD1 KD2 (human); compound 0.1 µM): 80%
residual activity (RPS6KA5 KD1 KD2 (human); compound 1.0 µM): 82%
residual activity (YES1 (human); compound 0.1 µM): 85%
residual activity (YES1 (human); compound 1.0 µM): 85%
residual activity (CAMKK2 (human); compound 0.1 µM): 104%
residual activity (CAMKK2 (human); compound 1.0 µM): 103%
residual activity (CSK (human); compound 0.1 µM): 100%
residual activity (CSK (human); compound 1.0 µM): 103%
residual activity (HIPK2 (human); compound 0.1 µM): 103%
residual activity (HIPK2 (human); compound 1.0 µM): 112%
residual activity (PLK1 (human); compound 0.1 µM): 92%
residual activity (PLK1 (human); compound 1.0 µM): 95%
residual activity (PKN2 (human); compound 0.1 µM): 89%
residual activity (GSK3B (human); compound 0.1 µM): 102%
residual activity (GSK3B (human); compound 1.0 µM): 101%
residual activity (PRKCZ (human); compound 0.1 µM): 95%
residual activity (PRKCZ (human); compound 1.0 µM): 88%
residual activity (ROCK2 (rat); compound 0.1 µM): 91%
residual activity (ROCK2 (rat); compound 1.0 µM): 93%
residual activity (PAK6 (human); compound 0.1 µM): 97%
residual activity (PAK6 (human); compound 1.0 µM): 101%
residual activity (IGF1R (human); compound 0.1 µM): 86%
residual activity (IGF1R (human); compound 1.0 µM): 94%
residual activity (PRKAA1 or PRKAA2 (rat); compound 0.1 µM): 90%
residual activity (PRKAA1 or PRKAA2 (rat); compound 1.0 µM): 98%
residual activity ([1]; compound 0.1 µM): 81%
residual activity ([1]; compound 1.0 µM): 84%
Structure (SMILES): Cn1c(=O)c2c(ncn2C)n(C)c1=O
